Legend:
[1] = molecular target: T1, interaction between SBP-Tag and Streptavidin (Streptomyces avidinii, UniProt P22629, L133T/T100R/V149R/V79T); test: RUSH^L[ID]: release of SBP-tagged reporters from the hook Ii-Core streptavidin, by immunofluorescence and time-lapse imaging; format: cell-based, human
T1 construct: expressed in transfected cells; host or cells: HeLa cells, transient transfection of the hook-IRES-reporter plasmid
Method: The Reporter ST-SBP-GFP is retained in the ER in cells expressing the hook Ii-Core streptavidin. Biotin is added at time 00:00 (min sec) and the release of the reporter is followed by time-lapse fluorescent imaging using a spinning disk equipped confocal microscope at 37° C. The Reporter starts to be visible in the Golgi apparatus in a very short time (9:30) and labels massively the Golgi apparatus by 30 minutes.
The Reporter SBP-GFP-Ecadherin is retained in the ER in cells expressing the hook Ii-Core streptavidin. Biotin is added at time 00:00 (min:sec) and the release of the reporter is followed by time-lapse fluorescent imaging using a spinning disk equipped confocal microscope at 37° C. The Reporter is visualized using GFP as a detection domain. Significant quantities of the reporter are visible in the Golgi apparatus from 03:30 and continue to increase. The reporter starts to be visible at the plasma membrane around 30:00. Note that transport intermediates (in the form of punctuate staining) are visible at early (ER to Golgi) and late (Golgi to plasma membrane) time points.
(§1) Hela cells were grown at 37° C. in DMEM (Invitrogen) supplemented with L-glutamine, Sodium Pyruvate and 10% Fetal Calf Serum. For transient transfection, cells were plated on coverslips in 150-mm culture dishes and transfected with 25 μg of the plasmid hook-IRES-reporter using the calcium phosphate precipitation method, in presence of 25 mM HEPES. After 4 hours, cells were washed out with fresh medium and incubated overnight in presence of 3.1 nM Rapamycin (Sigma). Then cells were washed out 3 times with medium, and incubated in prewarmed medium with 3.3 μM FK506 (Cayman) and […] cycloheximide (CHX) for several time points. For each time point, 1 mL of medium containing FK506 and CHX was added into a well of a 12-well plate. Then cells were fixed with 4% PAF and processed for fluorescent microscopy. In the streptavidin/SBP set-up, transfection is done similarly but no addition is done when washing the cells after transfection. After 1-hours, biotin (10 μM) is added to induce reporter release. Then cells are then processed as in the MD set-up.
Cells were fixed in paraformaldehyde 3% for 15 min, washed in PBS (Phosphate Buffer Saline) and free aldehydes were quenched in NH4Cl 50 mM for 5 min. Cells were then permeabilized in PBS containing Bovine Serum Albumine (BSA 0.5%) and Saponine (Sapo 0.05%) [PBS/BSA/Sapo] for 20 min and incubated with primary antibodies (human anti-Giantin, Nizak et al. 2003, Moutel et al., 2009) in the same buffer for 30 min Cells were washed in PBS and incubated in PBS/BSA/Sapo with fluorescently labelled secondary antibodies (Jackson Immunoresearch) for 20 min Nuclei were counter-stained with DAPI (4′,6-Diamidino-2-phenylindole, Sigma-Aldrich). Cells were finally washed in PBS before being mounted in Mowiol (Sigma-Aldrich) and observed by fluorescent microscopy.
A hook was constructed using the ER localized Ii33 fused to monomeric Streptavidin (SEQ ID NO:3) (FRAP of the construct from Example 1 is replaced by monomeric Streptavidin). The reporter was the Golgi localization domain of Sialyl Transferase as used in Example 1. The Hook and reporter were co-expressed in cells and the two domains, streptavidin and SBP-tag interact by default, preventing ST transport to the Golgi apparatus. Release of ST was achieved using moderate concentration of free biotin (around 1-10 μM).

[2] = molecular target: T2, interaction between SBP and core streptavidin (Streptomyces avidinii, UniProt P22629); test: RUSH^C[ID]: release of the reporter TMD22 from the hook TMD17-streptavidin; format: cell-based, human; settings: upon biotin addition; cytoplasmic topology
T2 construct: the FRAP domain is replaced by Core streptavidin which was amplified by PCR; expressed in transfected cells; host or cells: HeLa cells, transient transfection of the hook-IRES-reporter plasmid
T2 sequence (P22629 with tags, fused parts or gaps): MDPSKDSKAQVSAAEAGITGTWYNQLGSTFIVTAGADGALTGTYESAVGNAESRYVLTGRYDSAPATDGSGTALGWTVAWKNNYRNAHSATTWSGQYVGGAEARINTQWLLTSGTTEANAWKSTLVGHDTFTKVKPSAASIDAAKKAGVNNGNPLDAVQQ
Method: as §1
Cells were fixed in paraformaldehyde 3% for 15 min, washed in PBS (Phosphate Buffer Saline) and free aldehydes were quenched in NH4Cl 50 mM for 5 min. […]

[3] = upon biotin addition, surface anti-GFP

T1 sequence (P22629 25-183 V79T/T100R/L133T/V149R limits assumed): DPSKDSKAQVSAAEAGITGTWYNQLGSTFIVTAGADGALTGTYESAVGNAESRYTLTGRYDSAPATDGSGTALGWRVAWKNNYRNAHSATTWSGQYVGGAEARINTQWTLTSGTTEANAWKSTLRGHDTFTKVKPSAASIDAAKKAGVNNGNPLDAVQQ

For `O=C(O)CCCC[C@@H]1SC[C@@H]2NC(=O)N[C@@H]21` [Biotin, D-Biotin], which “time by which reporter labels massively the Golgi apparatus” value ([1]; reporter ST-SBP-GFP, biotin added at 00:00, 37° C.) is on record?
Its value is ≤ 30 min.

And the “concentration of free biotin achieving release of ST” value ([1]; reporter ST, hook Ii33-Streptavidin)?
Its value is 1 to 10 µM.

What about the “release of reporters ST-SBP-GFP and ManII-SBP-mCherry to the Golgi apparatus” value ([1]; upon addition of biotin) of the same compound?
The value was “they both reach the Golgi apparatus”.

And the “release of reporter SBP-GFP-Ecadherin to the plasma membrane” value [1, 3]?
The value was “the reporter is released and reaches its target plasma membrane compartment”.

And the “release of reporter SBP-GFP-VSV-G to the plasma membrane” value [1, 3]?
Its value is “the reporter is released and reaches its target plasma membrane compartment”.

And the “release of reporter TMD22 toward the plasma membrane” value [2]?
Its value is “release was observed”.

Reference: patent publication US20120149101A1, “METHODS AND KITS FOR REGULATING INTRACELLULAR TRAFFICKING OF A TARGET PROTEIN” (INSTITUT CURIE, priority 2009, published 2012)
